Results from patent US12612386B2, “Heteroaryl-triazole compounds as pesticides” (Bayer Aktiengesellschaft, priority 2020, dated 2026).

What was measured:
Assay type in all cases: in vivo
[1] = tested on: larvae of the banded cucumber beetle (Diabrotica balteata); assay: Diabrotica balteata spray test; conditions: 168 h, 100 g/ha (=32 μg/well), after 7 days, read-out: efficacy (seedling growth)
Description: Diabrotica balteata—Spray Test
(§1) • Solvent: 78.0 parts by weight of acetone • 1.5 parts by weight of dimethylformamide • Emulsifier: alkylarylpolyglycol ether
(§2) To produce a suitable preparation of active compound, 1 part by weight of active compound is mixed with the stated amount of solvent, and the concentrate is diluted with water, containing an emulsifier concentration of 1000 ppm, to the desired concentration. Further test concentrations are prepared by dilution with emulsifier containing water.
Soaked wheat seeds (Triticum aestivum) are placed in a multiple well plate filled with agar and some water and are incubated for 1 day to germinate (5 seeds per well). The germinated wheat seeds are sprayed with a test solution containing the desired concentration of the active ingredient. Afterwards each unit is infected with 10-20 larvae of the banded cucumber beetle (Diabrotica balteata).
After 7 days efficacy in % is determined. 100% means all the seedlings have grown up like in the untreated, uninfected control; 0% means none of the seedlings have grown.

[2] = tested on: green peach aphid (Myzus persicae); assay: Myzus persicae spray test (MYZUPE); conditions: 120 h, 100 g/ha, after 5 days
Description: Myzus persicae—Spray Test
• Solvent: 78.0 parts by weight acetone • 1.5 parts by weight dimethylformamide • Emulsifier: alkylarylpoly glycol ether
as §2, with “solvents” for “solvent,”, “and” for “and the concentrate”
Chinese cabbage (Brassica pekinensis) leaf disks infected with all instars of the green peach aphid (Myzus persicae), are sprayed with a preparation of the active ingredient of the desired concentration.
After 5 days mortality in % is determined. 100% means all aphids have been killed and 0% means none of the aphids have been killed.
Myzus persicae—Spray Test (MYZUPE)
(§3) • Solvent: 78.0 parts by weight acetone • 1.5 parts by weight dimethylformamide • Emulsifier: alkylarylpolyglycol ether
After the specified period of time, mortality in % is determined. 100% means all aphids have been killed and 0% means none of the aphids have been killed.

[3] = tested on: larvae of the southern green stink bug (Nezara viridula); assay: whole plant or invertebrate; conditions: 96 h
Description: Nezara viridula—Spray Test
as §1, §2
Barley plants (Hordeum vulgare) are sprayed with a test solution containing the desired concentration of the active ingredient and are infested with larvae of the southern green stink bug (Nezara viridula).
After 4 days mortality in % is determined. 100% means all the stink bugs have been killed; 0% means none of the stink bugs have been killed.

[4] = tested on: brown planthopper (Nilaparvata lugens); assay: Nilaparvata lugens spray test; conditions: 96 h
Description: Nilaparvata lugens—Spray Test
as §1
as §2, with “solvents” for “solvent,”, “and” for “and the concentrate”
Rice plants (Oryza sativa) are sprayed with a preparation of the active ingredient of the desired concentration and the plants are infested with the brown planthopper (Nilaparvata lugens).
After 4 days mortality in % is determined. 100% means all planthoppers have been killed and 0% means none of the planthoppers have been killed.

[5] = tested on: fall armyworm larvae (Spodoptera frugiperda); assay: whole plant or invertebrate; conditions: 168 h
Description: Spodoptera frugiperda—Spray Test
as §3
as §2, with “solvents” for “solvent,”, “and” for “and the concentrate”
Maize (Zea mays) leaf sections are sprayed with a preparation of the active ingredient of the desired concentration. Once dry, the leaf sections are infested with fall armyworm larvae (Spodoptera frugiperda).
After 7 days mortality in % is determined. 100% means all caterpillars have been killed and 0% means none of the caterpillars have been killed.
Spodoptera frugiperda—Spray Test (SPODFR)
After the specified period of time, mortality in % is determined. 100% means all caterpillars have been killed and 0% means none of the caterpillars have been killed.

SMILES | pest or weed control at 32 µg/disc, 100 g/ha [1] [%] | mortality at 100 g/ha [2] [%] | mortality at 500 g/ha [3] [%] | mortality at 500 g/ha [4] [%] | mortality at 100 g/ha [5] [%] | mortality at 100 g/ha [3] [%]
CNC(=O)c1cc(-n2ncnc2[C@H](C)NC(=O)c2cc(OC(F)F)cc(OC(F)F)c2)ncn1 [I-94] | 100 | 100 | 100 | 100 | 100 | 
C[C@H](NC(=O)c1cccc(C(F)(F)F)c1)c1ncnn1-c1cc(C(N)=O)ncn1 [I-92] | 100 | 100 | 100 | 100 | 100 | 
C[C@H](NC(=O)c1cc(F)cc(C#N)c1)c1ncnn1-c1cc(C(N)=O)ncn1 [I-77] | 100 | 100 | 100 | 100 |  | 
CNC(=O)c1cc(-n2ncnc2[C@H](C)NC(=O)c2cc(Br)cc(OC(F)(F)C(F)F)c2)ncn1 [I-122] | 100 |  | 100 | 100 | 100 | 
CNC(=O)c1cc(-n2ncnc2[C@H](C)NC(=O)c2cc(Cl)cc(S(C)(=O)=O)c2)ncn1 [I-60] | 100 | 90 | 100 | 100 |  | 
C[C@H](NC(=O)c1cc(OC(F)(F)F)cc(C2(C#N)CC2)c1)c1ncnn1-c1cc(C(N)=O)ncn1 [I-120] | 100 | 90 | 100 | 100 | 100 | 100
Cc1nc([C@H](C)NC(=O)c2cc(Cl)cc(S(C)(=O)=O)c2)n(-c2cc(C(N)=O)ncn2)n1 [I-61] |  |  | 100 | 90 |  | 
C[C@H](NC(=O)c1cc(F)cc(OC(F)F)c1)c1ncnn1-c1cc(C(N)=O)ncn1 [I-79] | 100 | 100 | 100 | 100 | 100 | 
C[C@H](NC(=O)c1cccc(S(=O)(=O)C(F)(F)F)c1)c1ncnn1-c1cc(C(N)=O)ncn1 [I-140] | 100 | 100 | 100 | 90 | 100 | 
C[C@H](NC(=O)c1cc(C(F)(F)F)cc(C(F)(F)F)c1)c1ncnn1-c1cc(C(=O)N(C)C)ncn1 [I-129] | 100 | 100 | 100 | 100 | 100 | 
C[C@H](NC(=O)c1cc(Cl)cc(C#N)c1)c1ncnn1-c1cc(C(N)=O)ncn1 [I-125] | 100 | 70 | 100 | 100 | 100 | 100
CNC(=O)c1cc(-n2ncnc2[C@H](C)NC(=O)c2cc(C(F)(F)F)cc(S(C)(=O)=O)c2)ncn1 [I-81] | 100 | 100 | 100 | 100 | 100 | 
C[C@H](NC(=O)c1cc(C#N)cc(C#N)c1)c1ncnn1-c1cc(C(N)=O)ncn1 [I-126] |  |  | 100 | 100 |  | 100
C[C@H](NC(=O)c1cc(Cl)cc(S(C)(=O)=O)c1)c1ncnn1-c1cc(C(N)=O)ncn1 [I-59] | 100 | 90 | 100 | 100 |  | 
C[C@H](NC(=O)c1cc(C(F)F)cc(C(F)F)c1)c1ncnn1-c1cc(C(=O)N(C)C)ncn1 [I-139] | 100 | 100 | 100 | 100 |  | 
C[C@H](NC(=O)c1cccc(F)c1)c1ncnn1-c1cc(C(N)=O)ncn1 [I-44] | 100 |  | 100 | 100 |  | 100
Cc1nc([C@H](C)NC(=O)c2cccc(OC(F)(F)F)c2)n(-c2cc(C(N)=O)ncn2)n1 [I-101] | 100 | 90 | 100 | 100 | 100 | 
Cc1nc([C@H](C)NC(=O)c2cc(OC(F)(F)F)cc(S(C)(=O)=O)c2)n(-c2cc(C(N)=O)ncn2)n1 [I-32] |  | 90 | 100 | 90 | 100 | 90
CNC(=O)c1nccc(-n2ncnc2[C@H](C)NC(=O)c2cc(OC(F)(F)F)cc(OC(F)(F)F)c2)n1 [I-116] | 100 | 100 | 100 | 100 | 100 | 100
CNC(=O)c1cc(-n2ncnc2[C@H](C)NC(=O)c2cc(OC(F)(F)F)cc(S(C)(=O)=O)c2)ncn1 [I-83] | 100 | 100 | 100 | 100 | 100 | 
C[C@H](NC(=O)c1cc(OC(F)(F)F)cc(S(C)(=O)=O)c1)c1nc(C2CC2)nn1-c1cc(C(=O)N(C)C)ncn1 [I-154] |  | 90 | 100 | 100 | 100 | 
Cc1nc([C@H](C)NC(=O)c2cc(C#N)cc(C#N)c2)n(-c2cc(C(N)=O)ncn2)n1 [I-128] | 100 |  | 100 | 100 |  | 100
Cc1nc([C@H](C)NC(=O)c2cc(C(F)(F)F)cc(S(C)(=O)=O)c2)n(-c2cc(C#N)ncn2)n1 [I-23] | 100 |  | 100 | 100 |  | 
Cc1nc([C@H](C)NC(=O)c2cc(S(=O)(=O)C(F)(F)F)cc(S(=O)(=O)C(F)(F)F)c2)n(-c2cc(C#N)ncn2)n1 [I-29] | 100 |  |  | 100 | 100 | 
CC(C)N(C)C(=O)c1nccc(-n2ncnc2[C@H](C)NC(=O)c2cc(OC(F)(F)F)cc(OC(F)(F)F)c2)n1 [I-115] | 80 | 90 |  | 90 | 100 | 
C[C@H](NC(=O)c1cc(C(F)F)cc(C(F)F)c1)c1ncnn1-c1cc(C(N)=O)ncn1 [I-133] | 100 | 100 |  | 100 | 100 | 
Cc1nc([C@H](C)NC(=O)c2cc(C(F)(F)F)cc(C(F)(F)F)c2)n(-c2cc(C(=O)N(C)C)ncn2)n1 [I-130] | 100 |  | 100 | 100 | 100 | 
CNC(=O)c1cc(-n2ncnc2[C@H](C)NC(=O)c2cc(C(F)F)cc(C(F)F)c2)ncn1 [I-134] | 100 | 90 |  | 100 | 100 | 
